Reference: patent publication US20140288077A1, “SUBSTITUTED 4-PHENOXYPHENOL ANALOGS AS MODULATORS OF PROLIFERATING CELL NUCLEAR ANTIGEN ACTIVITY” (ST. JUDE CHILDREN'S RESEARCH HOSPITAL, priority 2011, published 2014)
Like-named read-outs stand apart in the source and are kept apart here. Values belong to the compound of their own block, whether it stands above or below them.

Columns and labels:
HeLa cells [1] = experiment: Cisplatin-induced DNA double-strand breaks (gH2Ax positive cells) by flow cytometry; type: cell-based; details: with cisplatin, dose-dependent, FIG. 7
[2] = test system: DNA polymerase present in a CHO lysate; experiment: In vitro translesion DNA synthesis past a cisplatin adduct; type: biochemical; details: FIG. 8
Description: In a further experiment, an in vitro […] DNA polymerization assay was used (e.g. see Hoffman, et al., Proc Natl Acad Sci USA (1996) 93(24), 13766-9). The assay measures the ability of DNA polymerase present in a CHO lysate to catalyze synthesis of a DNA strand past a cisplatin adduct in an oligonucleotide template. The data in FIG. 8 outline the assay approach in the upper panel, and the gel electrophoresis data are shown in the lower panel. […] The negative control lanes (right side of gel image showing the levels of DMSO contributed by the compound) show not effect on DNA synthesis.

HeLa cells [3] = experiment: CellTiter-Glo cell viability assay with cisplatin; type: cell-based; details: increasing concentration of compound, 24 or 48 hours, FIG. 9
Experimental: Cell viability was determined using CellTiter-Glo® Luminescent Cell Viability Assay (Promega Corporation, Madison, Wis.). Cell viability assays were carried out in 384-well plates after cells were treated for 24 or 48 hours with the disclosed compounds.

[4] = biological target: T1, human PCNA recombinant protein (Homo sapiens, UniProt P12004); experiment: Fluorescent polarization assay: competition with 5-FAM-labeled PL peptide for PCNA; type: binding
T1 construct: The full length human PCNA; made in house; host or cells: Escherichia coli BL21(DE3)
T1 sequence (P12004 whole entry): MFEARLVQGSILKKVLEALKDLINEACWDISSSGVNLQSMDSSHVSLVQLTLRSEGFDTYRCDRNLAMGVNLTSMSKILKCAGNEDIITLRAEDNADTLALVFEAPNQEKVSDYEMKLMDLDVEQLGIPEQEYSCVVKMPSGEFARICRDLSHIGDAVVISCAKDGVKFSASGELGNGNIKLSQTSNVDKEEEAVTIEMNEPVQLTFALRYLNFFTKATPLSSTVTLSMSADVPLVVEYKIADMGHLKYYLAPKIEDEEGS
Description: To determine the binding of the disclosed compounds to the human PCNA recombinant protein, a fluorescence polarization assay was employed. The assay is based on competition between a fluorescent tracer and increasing amounts of competing compound, i.e. a disclosed compound, determined as fluorescence polarization intensity (mP). The fluorescent tracer was 5-carboxyfluorescein (5-FAM) labeled PL peptide (“FAM-PL”). […] PCNA was a recombinant protein purified using standard methods known to one skilled in the art using an expression construct obtained from Dr. Toshiki Tsurimoto, Kyusyu University, Japan.
The volumes of PCNA and FAM-PL were adjusted to ensure that the final concentration of PCNA was 200 nM and FAM-PL was 10 nM. Assays were carried out in 384 well plates in a total volume of about 20-30 μL. […] Fluorescence measurements were made immediately after dilution in the assay plate. […] FP values (P) were calculated in millipolarization units (mP),
where I∥ and I⊥ are the emission intensities recorded, respectively, in the parallel and perpendicular directions relative to the plane of excitation polarization, after background intensity correction. G-factor values (G) for the fluorescein spectral window were measured using 1 nM fluorescein.
Alternatively, the fluorescent polarization assay can be carried out as described in the following. […] Briefly, 20 μl of the assay solution was transferred into each well of a black 384-well plate using Wellmate (Matrix). […] The negative control in each plate was DMSO, whereas the positive control was unlabeled PL-peptide as a self-competitor. […] FP values were calculated in millipolarization units. All data processing was performed using in-house programs in the Pipeline Pilot (Accelrys, version 7.0.1). The quality of the primary screen was assessed by Z-prime and other screening quality metrics.

[5] = biological target: PCNA/full-length p21 interaction (Homo sapiens, UniProt P12004); experiment: Pull-down competition assay: PCNA captured by immobilized full-length p21-His6; details: FIG. 5, gel electrophoresis
Chain of PCNA/full-length p21 interaction (P12004 whole entry): as above

U2OS cells [6] = experiment: U2OS cell viability with cisplatin and test compound (AlamarBlue, 4 days); type: cell-based; details: cisplatin alone up to 10 μM, FIG. 21
Experimental: U2OS cells were cultured in DMEM in a 384-well plate (3000 cells/20 μL per well), treated with indicated dilution of cisplatin (see FIG. 21) and each indicated test compound (15 μM; 20 μL per well in DMEM), and cultured for 4-days. AlamarBlue reagent (Invitrogen, 4 μL per well) was added and signals were read per manufacturer's recommendation. Signals of wells contains no cells and cells with no drugs served as 0% and 100% viability, respectively.

U2OS cells [7] = experiment: γH2AX staining by flow cytometry, T2AA and cisplatin; details: single agent, 18 h, FIG. 28A
U2OS cells [8] = experiment: Growth of cells after treatment with cisplatin and T2AA and release (Alamar Blue); details: cisplatin alone up to 10 μM, FIG. 28B
[9] = Table 2, inhibition of FAM-PL peptide binding to PCNA, read-out: IC50

DNA synthesis past the cisplatin adduct (TLS product) [2]: inhibits
Structure (SMILES): N[C@H](CO)Cc1cc(I)c(Oc2ccc(O)cc2)c(I)c1 [(S)-T2AA, (S)-4-(4-(2-amino-3-hydroxypropyl)-2,6-diiodophenoxy)phenol]
cisplatin-induced DNA double-strand breaks (gH2Ax positive cells) (HeLa cells [1]): at least a doubling | cell viability for a given concentration of cisplatin (HeLa cells [3]): greater loss of cell viability

IC50 [4, 9]: 1600 nM
Structure (SMILES): NCc1cc(I)c(Oc2ccc(O)cc2)c(I)c1 [MLAG-082, 4-(4-(aminomethyl)-2,6-diiodophenoxy)phenol]

IC50 [4, 9]: 6600 nM
Structure (SMILES): NC(=O)Cc1cc(I)c(Oc2ccc(O)c(I)c2)c(I)c1 [MLAG-088, 2-(4-(4-Hydroxy-3-Iodophenoxy)-3,5-diiodophenyl)acetamide]

IC50 [4, 9]: 20000 nM | level of PCNA captured by His6 p21 [5]: decreased significantly
Structure (SMILES): CS(=O)(=O)NC(=O)CCc1cc(I)c(Oc2ccc(O)cc2)c(I)c1 [MLAE-038, 3-(4-(4-hydroxyphenoxy)-3,5-diiodophenyl)-N-(methylsulfonyl)propanamide]

IC50 [4, 9]: > 50000 nM
Structure (SMILES): COc1ccc(Oc2c(I)cc(CC(=O)NS(C)(=O)=O)cc2I)cc1 [MLAE-046, 2-(3,5-Diiodo-4-(4-methoxyphenoxy)phenyl)-N-(methylsulfonyl)acetamide]

Structure (SMILES): N.N.[Cl][Pt][Cl] [cisplatin, reference compound]
U2OS cell growth (U2OS cells [6]): not significantly affected | γH2AX level (DNA damage response) (U2OS cells [7]): significantly induced γH2AX | U2OS cell growth (U2OS cells [8]): not significantly affected

IC50 ([4]; incubation time 5 min (FIGS. 15-18), read-out: IC50 in fluorescent polarization assay): ~270 nM
Structure (SMILES): Oc1ccc(Oc2c(I)cc(C[C@H]3C[NH2+][Pt-2]([Cl])([Cl])[NH2+]3)cc2I)cc1 [dichloro((S)-4-(4-(2,3-diaminopropyl)-2,6-diiodophenoxy)phenol)platinum(II)]

IC50 [4, 9]: 270 nM
Structure (SMILES): Oc1ccc(Oc2c(I)cc(C[C@H]3C[NH2+][Pt-2]([Cl])([Cl])[NH2+]3)cc2I)cc1 [SWUA_018, Dichloro((S)-4-(4-(2,3-diaminopropyl)-2,6-diiodophenoxy)phenol)platinum(II)]
